ChEMBL document CHEMBL1201862, “PubChem BioAssay data set” (2004)
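48-hour exposure; five concentrations; linearly interpolated endpoints. GI50 marks 50% less growth.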 Activity calls are given as the source filed them. Cut-off read from the data, not from the text of the source: active = GI50 up to about 1.1 µM and inactive = higher.

What was measured:
Experiment in all cases: growth of human tumour cells (NCI), 48 h
[1] = tested on: SK-MEL-5
[2] = tested on: DMS-273
[3] = tested on: NCI-H460
[4] = tested on: U-251
[5] = tested on: HL-60
[6] = tested on: UO-31
[7] = tested on: ACHN
[8] = tested on: SK-MEL-28
[9] = tested on: HCT-116
[10] = tested on: SNB-19
[11] = tested on: HOP-62
[12] = tested on: KM12
[13] = tested on: NCI-H226
[14] = tested on: SR
[15] = tested on: NCI-H522

Measured: GI50

Clc1ccc(C2N3CCCCC3[C@@H]3c4[nH]c5ccccc5c4CCN23)cc1 (stereo partly drawn)
inactive: [1] 59 µM | [2] 42.2 µM | [3] 61.8 µM | [4] 57.9 µM | [5] 24.9 µM | [6] 49.7 µM | [7] 39.2 µM | [8] > 100 µM | [9] 30.2 µM | [10] 93.3 µM | [11] > 100 µM

O=[N+]([O-])c1ccc2occ3c2c1CCC3
inactive: [12] > 100 µM | [1] > 100 µM | [2] > 100 µM | [3] > 100 µM | [4] > 100 µM | [13] 40 µM | [5] > 100 µM | [6] 71.6 µM | [14] > 100 µM | [7] > 100 µM | [8] > 100 µM | [15] > 100 µM | [9] > 100 µM | [10] > 100 µM | [11] > 100 µM

O=c1c2ccccc2c(=O)n2n1CC=CC2
inactive: [12] > 100 µM | [1] > 100 µM | [2] > 100 µM | [4] > 100 µM | [13] > 100 µM | [5] > 100 µM | [6] > 100 µM | [7] > 100 µM | [8] > 100 µM | [15] > 100 µM | [9] > 100 µM | [10] > 100 µM

CC(C)(C)CC(C)(C)c1cc2c(O)c(c1)Cc1cc(C(C)(C)CC(C)(C)C)cc(c1O)Cc1cc(C(C)(C)CC(C)(C)C)cc(c1O)Cc1cc(C(C)(C)CC(C)(C)C)cc(c1O)C2
inactive: [12] > 100 µM | [1] > 100 µM | [2] > 100 µM | [3] > 100 µM | [4] > 100 µM | [5] > 100 µM | [6] > 100 µM | [7] > 100 µM | [8] > 100 µM | [15] > 100 µM | [9] > 100 µM | [10] > 100 µM | [11] > 100 µM

Clc1cccc(C2SCc3nc4ccccc4n32)c1Cl (stereo not drawn)
inactive: [1] 14.1 µM | [2] 15.9 µM | [3] 18.5 µM | [4] 17.5 µM | [5] 5.18 µM | [6] 13 µM | [7] 20.8 µM | [8] 21.1 µM | [15] 16.6 µM | [9] 18.6 µM | [10] 18 µM | [11] 17.4 µM

CCn1c2ccccc2c2ccc3c(c21)C(=O)c1ccccc1C3=O
inactive: [1] 76.6 µM | [2] > 100 µM | [4] > 100 µM | [13] > 100 µM | [5] 36.8 µM | [6] > 100 µM | [14] 10.4 µM | [7] > 100 µM | [8] > 100 µM | [15] > 100 µM | [9] > 100 µM | [10] > 100 µM | [11] > 100 µM

CC(=O)OC1C/C(C)=C/CCC(C)/C=C/C2(C)CCC(C(C)(C)O)C12 (stereo not drawn)
inactive: [12] 51.2 µM | [1] 47.6 µM | [2] 44.2 µM | [3] 39.2 µM | [4] 39.4 µM | [13] 45.1 µM | [5] 24.2 µM | [6] 37.3 µM | [14] 18.6 µM | [7] 36 µM | [8] 72.1 µM | [9] 26.2 µM | [10] > 100 µM | [11] 88.1 µM

Cc1ccc(/C=C/C(=O)c2ccc(Cl)c(Cl)c2)cc1
inactive: [12] > 100 µM | [1] > 100 µM | [2] > 100 µM | [3] > 100 µM | [4] > 100 µM | [13] > 100 µM | [5] > 100 µM | [6] > 100 µM | [14] > 100 µM | [7] > 100 µM | [8] > 100 µM | [15] > 100 µM | [9] > 100 µM | [10] > 100 µM | [11] > 100 µM

C1CCN(c2nc(=[N+]3CCCCC3)ss2)CC1
inactive: [12] 9.18 µM | [1] > 100 µM | [2] > 100 µM | [3] 48.8 µM | [4] 49.5 µM | [13] 19.1 µM | [5] > 100 µM | [6] > 100 µM | [14] > 100 µM | [7] > 100 µM | [8] 84.9 µM | [15] > 100 µM | [9] > 100 µM | [10] > 100 µM | [11] > 100 µM

C/C=C/COC(=O)CO[N+](=O)[O-]
inactive: [12] > 100 µM | [2] > 100 µM | [3] > 100 µM | [4] > 100 µM | [13] > 100 µM | [5] > 100 µM | [6] > 100 µM | [14] > 100 µM | [7] > 100 µM | [15] > 100 µM | [9] > 100 µM | [10] > 100 µM | [11] > 100 µM
